Test results reported in patent US12637437B2, “Herbicidal compounds” (SYNGENTA CROP PROTECTION AG, priority 2021, dated 2026).

Columns and labels:
Type in all cases: in vivo
[1] = test system: Amaranthus retoflexus (AMARE); assay: Post-emergence herbicidal glasshouse test, AMARE; design: dose or concentration left out as unconfirmed; details: evaluated after 13 days, five-point scale
In short: (§1)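 For each species, sown pots were held under controlled glasshouse conditions (24/16 °C, 14 h photoperiod, 65% humidity) before treatment. Treatment was a spray in 50:50 acetone/water with 0.5% Tween 20, normally at 125 g/h. Thirteen days later, damage was scored as 1 (0-19%) up to 5 (80-100%).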

[2] = test system: Abutilon theophrasti (ABUTH); assay: Post-emergence herbicidal glasshouse test, ABUTH; details: 125 g/h, evaluated after 13 days, five-point scale
Method: (§2) Seeds of a variety of test species are sown in standard soil in pots (Lolium perenne (LOLPE), Amaranthus retoflexus (AMARE), Abutilon theophrasti (ABUTH), Setaria faberi (SETFA), Echinochloa crus-galli (ECHCG), Ipomoea hederacea (IPOHE)). After cultivation for one day (pre-emergence) or after 8 days cultivation (post-emergence) under controlled conditions in a glasshouse (at 24/16° C., day/night; 14 hours light; 65% humidity), the plants are sprayed with an aqueous spray solution derived from the formulation of the technical active ingredient in acetone/water (50:50) solution containing 0.5% Tween 20 (polyoxyethelyene sorbitan monolaurate, CAS RN 9005-64-5). Compounds are applied at 125 g/h unless otherwise indicated. The test plants are then grown in a glasshouse under controlled conditions in a glasshouse (at 24/16° C., day/night; 14 hours light; 65% humidity) and watered twice daily. After 13 days for pre and post-emergence, the test is evaluated for the percentage damage caused to the plant. The biological activities are shown in the following table on a five-point scale (5=80-100%; 4=60-79%; 3=40-59%; 2=20-39%; 1=0-19%). “—” denotes not tested on this species or data not captured.

Setaria faberi (SETFA) [3] = assay: Post-emergence herbicidal glasshouse test, SETFA; details: 125 g/h, evaluated after 13 days, five-point scale
In short: as §1

[4] = test system: Echinochloa crus-galli (ECHCG); assay: Post-emergence herbicidal glasshouse test, ECHCG; details: 125 g/h, evaluated after 13 days, five-point scale
In short: as §1

[5] = test system: Ipomoea hederacea (IPOHE); assay: Post-emergence herbicidal glasshouse test, IPOHE; details: 125 g/h, evaluated after 13 days, five-point scale
In short: as §1

[6] = test system: Amaranthus retoflexus (AMARE); assay: Pre-emergence herbicidal glasshouse test, AMARE; details: 125 g/h, evaluated after 13 days, five-point scale
In short: as §1

[7] = test system: Abutilon theophrasti (ABUTH); assay: Pre-emergence herbicidal glasshouse test, ABUTH; details: 125 g/h, evaluated after 13 days, five-point scale
Method: as §2

Setaria faberi (SETFA) [8] = assay: Pre-emergence herbicidal glasshouse test, SETFA; details: 125 g/h, evaluated after 13 days, five-point scale
In short: as §1

[9] = test system: Echinochloa crus-galli (ECHCG); assay: Pre-emergence herbicidal glasshouse test, ECHCG; details: 125 g/h, evaluated after 13 days, five-point scale
In short: as §1

[10] = test system: Ipomoea hederacea (IPOHE); assay: Pre-emergence herbicidal glasshouse test, IPOHE; details: 125 g/h, evaluated after 13 days, five-point scale
In short: as §1

SMILES	percentage damage caused to the plant, POST Application AMARE [1]	percentage damage caused to the plant, POST Application ABUTH [2]	percentage damage caused to the plant, POST Application SETFA (Setaria faberi (SETFA) [3])	percentage damage caused to the plant, POST Application ECHCG [4]	percentage damage caused to the plant, POST Application IPOHE [5]	percentage damage caused to the plant, PRE Application AMARE [6]	percentage damage caused to the plant, PRE Application ABUTH [7]	percentage damage caused to the plant, PRE Application SETFA (Setaria faberi (SETFA) [8])	percentage damage caused to the plant, PRE Application ECHCG [9]	percentage damage caused to the plant, PRE Application IPOHE [10]
CCOC(=O)Nc1c(OC(F)F)ccc(C(=O)Nc2nnnn2CC)c1Cl [Compound 1.009]	4 (4=60-79%)	4 (4=60-79%)	3 (3=40-59%)	5 (5=80-100%)	4 (4=60-79%)	5 (5=80-100%)	5 (5=80-100%)	3 (3=40-59%)	4 (4=60-79%)	4 (4=60-79%)
CCn1nnnc1NC(=O)c1ccc(OC(F)F)c(NC(=O)OC)c1Cl [Compound 1.010]	4 (4=60-79%)	3 (3=40-59%)	5 (5=80-100%)	5 (5=80-100%)	4 (4=60-79%)	3 (3=40-59%)	5 (5=80-100%)	3 (3=40-59%)	3 (3=40-59%)	4 (4=60-79%)
